This experiment relates to Mouse bone marrow-derived mesenchymal cell line ST2 cells. As to the kind of experiment: Osteoblast differentiation test (alkaline phosphatase activity). Format: cell-based. Conditions: ST-2, 96 h, at 0.1 μg/mL, 4 days of culture, absorbance at 405 nm, DMSO control = 100%, read-out: alkaline phosphatase activity (increase rate in absorbance, control as 100%). The procedure:
Mouse bone marrow-derived mesenchymal cell line ST2 cells (source of supply: RIKEN) were seeded in α-MEM medium containing 10% fetal bovine serum (source of supply: GIBCO BRL Cat. No. 12000-022) in a 96 well plate at a cell density of 4×10^3 cells/0.1 mL/well, and cultured for 24 hr under the conditions of 37° C., 5% CO2. Then, each test compound was added at a final concentration of 0.001-10 μM, and the final concentration 0.1% (v/v) of DMSO was added to the control. After 4 days of culture, alkaline phosphatase (ALP) activity was measured by the following method.
The medium in the cultured 96 well plate was removed, the cells were washed with PBS buffer (KCl 0.2 g/L, KH2PO4 0.2 g/L, Na2HPO4.12H2O 2.9 g/L, NaCl 8 g/L) (100 μL/well), cell lysate (10 mM MgCl2, 2% (v/v) Triton X-100) (50 μL/well) was added, and the mixture was stirred at room temperature for 3 min. A substrate solution (50 mM diethanolamine (Wako Pure Chemical Industries, Ltd. Cat. No. 099-03112), 20 mM […] (Nacalai Tesque Cat. No. 25019-81)) (50 μL/well) was added, and the mixture was left standing at room temperature for 9 min. 1N NaOH 50 μL/well was added to discontinue the reaction, and the absorbance at 405 nm was measured by a microplate reader (Dainippon Pharmaceutical Co., Ltd.)
An increase rate (%) in the absorbance by the test compound was calculated based on the absorbance of the control as 100%, and the differentiation degree of the osteoblast was evaluated.

Molecules are shown by their SMILES.

As for `NC(=O)c1ccc(C(F)(F)F)c(Oc2ccc(OCCOC3CCOCC3)cc2)c1` [Example 64], the activity at 0.1 µg/mL was at least 200%.

Consider `CC(=O)c1ccc(C(N)=O)cc1Oc1ccc(COC2CCOCC2)cc1` [Example 41, 4-acetyl-3-[4-(tetrahydropyran-4-yloxymethyl)phenoxy]benzamide], for which the activity at 0.1 µg/mL is at least 200%.

Turning to `COc1cc(Nc2ccc(N3CC(OCC4CCCO4)C3)cc2)c(NC(C)=O)cn1` (stereo not shown) [Example 89], the activity at 0.1 µg/mL is at least 200%.

Consider `CC(=O)c1ccc(C(N)=O)cc1Oc1ccc(CCCOC2CCOCC2)cc1` [Example 66], for which the activity at 0.1 µg/mL was at least 200%.

Regarding `NC(=O)c1ccc([N+](=O)[O-])c(Nc2ccc(N3CC(OCCO)C3)cc2)c1` [Example 5, 3-{4-[3-(2-hydroxyethoxy)azetidin-1-yl]phenylamino}-4-nitrobenzamide], the activity at 0.1 µg/mL was at least 200%.

For `COc1cc(Nc2ccc(N3CC(O)C3)cc2)c(NC(C)=O)cn1` [Example 88], the activity at 0.1 µg/mL is at least 200%.

On to `CC(=O)Nc1ccc(C(N)=O)cc1Nc1ccc(N2CC(OCC3CCCO3)C2)cc1` (stereo not shown) [Example 91], for which the activity at 0.1 µg/mL was at least 200%.

`CC(=O)c1ccc(C(N)=O)c(Nc2ccc(OCCOC3CCS(=O)(=O)CC3)cc2)c1` [Example 58]: the activity at 0.1 µg/mL was at least 200%.

Consider `NC(=O)c1ccc([N+](=O)[O-])c(Oc2ccc(N3CCC(OCCO)CC3)cc2)c1` [Example 63], for which the activity at 0.1 µg/mL is at least 200%.

Consider `NC(=O)c1ccc([N+](=O)[O-])c(Nc2ccc(N3CC(OCC4CCCO4)C3)cc2)c1` (stereo not shown) [Example 90], for which the activity at 0.1 µg/mL is at least 200%.

In the case of `C[C@@H](O)c1ccc(C(N)=O)cc1Oc1ccc(N2CC(CO)C2)cc1` [Example 94], the activity at 0.1 µg/mL was at least 200%.

Take `COc1cc(Nc2ccc(N3CCN(CC(C)(C)C(=O)O)CC3)cc2)c([N+](=O)[O-])cc1F` [Example 13, 3-{4-[4-(4-fluoro-5-methoxy-2-nitrophenylamino)phenyl]piperazin-1-yl}-2,2-dimethylpropionic acid]: the activity at 0.1 µg/mL is at least 200%.

Turning to `C[C@@H](O)c1ccc(C(N)=O)cc1Oc1ccc(N2CC(OCCO)C2)cc1` [Example 85], the activity at 0.1 µg/mL is at least 200%.

`CC(=O)c1ccc(C(N)=O)cc1Oc1ccc(OCCOCCOC(C)C)cc1` [Example 33, 4-acetyl-3-{4-[2-(2-isopropoxyethoxy)ethoxy]phenoxy}benzamide]: the activity at 0.1 µg/mL is at least 200%.

`CC(F)c1ccc(C(N)=O)cc1Oc1ccc(OCCOC2CCOCC2)cc1` (stereo not shown) [Example 39, 4-(1-fluoroethyl)-3-{4-[2-(tetrahydropyran-4-yloxy)ethoxy]phenoxy}benzamide]: the activity at 0.1 µg/mL was at least 200%.

For the molecule `CC(C)OCCOCCOc1ccc(Oc2cc(C(N)=O)ccc2C(F)(F)F)cc1` [Example 65], the activity at 0.1 µg/mL is at least 200%.

With `CC(=O)c1ccc(C(N)=O)cc1Oc1ccc(N2CC(OCCO)C2)cc1` [Example 28, 4-acetyl-3-{4-[3-(2-hydroxyethoxy)azetidin-1-yl]phenoxy}benzamide], the activity at 0.1 µg/mL was at least 200%.

Turning to `CC(=O)c1ccc(C(N)=O)c(Nc2ccc(OCCOC3CCOCC3)cc2)c1` [Example 57], the activity at 0.1 µg/mL is at least 200%.

For `CC(=O)c1ccc(C(N)=O)cc1Oc1ccc(/C=C/COC2CCOCC2)cc1` [Example 34, 4-acetyl-3-{4-[3-(tetrahydropyran-4-yloxy)propenyl]phenoxy}benzamide], the activity at 0.1 µg/mL is at least 200%.

Consider `CCC(=O)Nc1cnc(OC)cc1Nc1ccc(N2CC(OCCO)C2)cc1` [Example 45], for which the activity at 0.1 µg/mL was at least 200%.

As to `COc1cc(Nc2ccc(N3CC(OCCNS(N)(=O)=O)C3)cc2)c(NC(C)=O)cn1` [Example 16, N-(4-{4-[3-(2-sulfamoylaminoethoxy)azetidin-1-yl]phenylamino}-6-methoxypyridin-3-yl)acetamide], the activity at 0.1 µg/mL is at least 200%.

Take `COc1cc(Nc2ccc(N3CC(N4CCC(CO)CC4)C3)cc2)c(NC(C)=O)cn1` [Example 8, N-(4-{4-[3-(4-hydroxymethylpiperidin-1-yl)azetidin-1-yl]phenylamino}-6-methoxypyridin-3-yl)acetamide]: the activity at 0.1 µg/mL was at least 200%.

As to `NC(=O)c1ccc(C(F)(F)F)c(Nc2ccc(N3CC(OCCO)C3)cc2)c1` [Example 47], the activity at 0.1 µg/mL was at least 200%.

With `NC(=O)c1ccc(C(F)(F)F)c(Oc2ccc(COC3CCOCC3)cc2)c1` [Example 82], the activity at 0.1 µg/mL was at least 200%.

Consider `CC(F)(F)c1ccc(C(N)=O)cc1Nc1ccc(OCCOC2CCOCC2)cc1` [Example 18, 4-(1,1-difluoroethyl)-3-{4-[2-(tetrahydropyran-4-yloxy)ethoxy]phenylamino}benzamide], for which the activity at 0.1 µg/mL was at least 200%.

For the molecule `NC(=O)c1ccc([N+](=O)[O-])c(Nc2ccc(OCCOC3CCOCC3)cc2)c1` [Example 50], the activity at 0.1 µg/mL was at least 200%.

For the molecule `CC(=O)c1ccc(C(N)=O)cc1Nc1ccc(OCCOC2CCS(=O)(=O)CC2)cc1` [Example 20, 4-acetyl-3-{4-[2-(1,1-dioxohexahydro-1λ^6-thiopyran-4-yloxy)ethoxy]phenylamino}benzamide], the activity at 0.1 µg/mL is at least 200%.

For the molecule `NC(=O)c1ccc(C(F)F)c(Oc2ccc(COC3CCOCC3)cc2)c1` [Example 83], the activity at 0.1 µg/mL is at least 200%.

In the case of `CC(=O)c1ccc(C(N)=O)cc1Nc1ccc(N2CC(OCC3CCCO3)C2)cc1` (stereo not shown) [Example 92], the activity at 0.1 µg/mL is at least 200%.

In the case of `CC(=O)c1ccc(C(N)=O)cc1Oc1ccc(N2CC(O)C2)cc1` [Example 96], the activity at 0.1 µg/mL is at least 200%.

For `COc1cc(Nc2ccc(N3CC(OCCO)C3)cc2)c([N+](=O)[O-])cc1F` [Example 2, 2-{1-[4-(4-fluoro-5-methoxy-2-nitrophenylamino)phenyl]azetidin-3-yloxy}ethanol], the activity at 0.1 µg/mL is at least 200%.

With `CC(=O)c1ccc(C(N)=O)cc1Nc1ccc(OCCOC2CCOCC2)cc1` [Example 17, 4-acetyl-3-{4-[2-(tetrahydropyran-4-yloxy)ethoxy]phenylamino}benzamide], the activity at 0.1 µg/mL is at least 200%.

On to `CC(=O)c1ccc(C(N)=O)c(Oc2ccc(OCCOC3CCOCC3)cc2)c1` [Example 70], for which the activity at 0.1 µg/mL was at least 200%.

For the molecule `NC(=O)c1ccc(C(F)(F)F)c(Oc2ccc(N3CC(OCCO)C3)cc2)c1` [Example 62], the activity at 0.1 µg/mL was at least 200%.

As for `CC(=O)c1ccc(C(N)=O)cc1Oc1ccc(N2CCC2)cc1` [Example 97], the activity at 0.1 µg/mL is at least 200%.

For `CC(F)(F)c1ccc(C(N)=O)cc1Oc1ccc(OCCOC2CCOCC2)cc1` [Example 74], the activity at 0.1 µg/mL was at least 200%.

On to `CNC(=O)c1ccc([N+](=O)[O-])c(Nc2ccc(N3CC(OCCO)C3)cc2)c1` [Example 48], for which the activity at 0.1 µg/mL is at least 200%.

Regarding `CC(=O)c1ccc(C(N)=O)cc1Oc1ccc(N2CCC(OCCO)CC2)cc1` [Example 30, 4-acetyl-3-{4-[4-(2-hydroxyethoxy)piperidin-1-yl]phenoxy}benzamide], the activity at 0.1 µg/mL was at least 200%.

Take `CC(=O)c1ccc(C(N)=O)c(Oc2ccc(N3CC(OCCO)C3)cc2)c1` [Example 29, 4-acetyl-2-{4-[3-(2-hydroxyethoxy)azetidin-1-yl]phenoxy}benzamide]: the activity at 0.1 µg/mL is at least 200%.

Consider `NC(=O)c1ccc(C(F)F)c(Oc2ccc(OCCOC3CCOCC3)cc2)c1` [Example 35, 4-difluoromethyl-3-{4-[2-(tetrahydropyran-4-yloxy)ethoxy]phenoxy}benzamide], for which the activity at 0.1 µg/mL was at least 200%.

For the origin of these results see patent US10059663B2, “Aromatic compound and use thereof” (Kyoto Pharmaceutical Industries, Ltd., priority 2013, dated 2018).
